From patent publication US20230219957A1, “SMALL MOLECULE CB002-ANALOGES RESTORE THE P53 PATHWAY AND TARGET S-PHASE CHECKPOINT” (Brown University, priority 2020, published 2023)

Tests used:
[1] = tested on: normal human WI38 lung fibroblast cells; experiment: Propidium iodide Sub-G1 analysis in normal cells; type: cell-based; conditions: forty-eight hours
Procedure: Apoptosis assay. Apoptotic cells were quantified by sub-G1 analysis. Cells were seeded at a density of 2.5×10^5to 5×10^5in a 6-well plate and treated forty-eight to seventy-two hours. After treatment, adherent cells were trypsinized and collected along with floating cells, washed with phosphate-buffered saline, and fixed in 70% ethanol. Cells were then incubated in a phosphate-citric acid buffer (0.2M Na2HPO4+0.1M citric acid, pH 7.8) at room temperature for five minutes, spun down, and resuspended for staining with 50 μg/mL propidium iodide (PI) in the presence of 250 μg/mL pancreatic ribonuclease (RNase A). Sub-G1 analyses were performed using an Epics Elite Epics flow cytometer (Coulter-Beckman). Propidium iodide and BrdU flow cytometry assay. Cells were seeded at a density of 5×10^5 in a 6-well plate and treated for forty-eight to seventy-two hours. After treatment, floating cells were collected, and adherent cells were trypsinized, pelleted, washed with phosphate-buffered saline, and fixed in 70% ethanol overnight. For propidium iodide (PI) based Sub-G1 apoptosis analysis, cells were spun down after fixation and resuspended in phosphate-citric acid buffer (0.2M Na2HPO4+0.1M Citric Acid, pH 7.8) at room temperature for five minutes. […] Samples were analyzed on an Epics Elite Epics flow cytometer (Coulter-Beckman).

SW480 tumor cells = experiment: Apoptosis markers (cleaved PARP immunoblot, Cyt-C immunofluorescence); type: cell-based, human
Procedure: Knockdown expression of p73, DR5, ATG5, or FADD using siRNA. A total of 1×10^5 cells/well were plated per well in a 12-well plate in medium with 10% FBS without antibiotic. Forward transfection of p73 siRNA (s14319, Ambion®, Ambion Inc., Austin, Tex., USA), DR5 (sc-40237, Santa Cruz Biotechnology), atg5 (137766, Ambion®, Ambion Inc., Austin, Tex., USA), or FADD (S16706, Ambion®, Ambion Inc., Austin, Tex., USA) was performed using the Lipofectamine® RNAiMAX Transfection Reagent (Life Technologies) and incubated for forty-eight hours before treatment, e.g., before drug treatments.
Immunoblotting (additional method). After treatment, floating cells were collected, and adherent cells were trypsinized, washed with phosphate-buffered saline, and lysed with RIPA buffer (Sigma-Aldrich, St. Louis, Mo., USA) for thirty minutes to one hour at 4° C. Protein lysates were pelleted. The supernatant was collected. Total protein per sample was determined using a Pierce™ BCA Protein Assay Kit (Thermo Fisher Scientific, Waltham, Mass., USA). Proteins were denatured using 1× NuPAGE® LDS sample buffer (Thermo Fisher Scientific, Waltham, Mass., USA) and reduced with 2-mercaptoethanol (Sigma-Aldrich, St. Louis, Mo., USA). Protein lysates were boiled for fifteen min at 95° C. After protein normalization, samples were loaded into NuPAGE™ Novex™ 4-12% Bis-Tris Protein Gels (Thermo Fisher Scientific, Waltham, Mass., USA). Gel electrophoresis was performed with NuPAGE™ MES SDS Running Buffer. […] Signal was detected using a chemiluminescent detection kit, followed by autoradiography. […]
Immunohistochemistry. […] Organoid viability imaging was determined by CellTrace™ Calcein Green (#C34852, Thermo Fisher Scientific, Waltham, Mass., USA), Ethidium Homodimer-1 (#E1169, Thermo Fisher Scientific, Waltham, Mass., USA), Ki67 incubated at 37° C. for one hour then washed with phosphate-buffered saline and imaged. […]

SW480 cells = experiment: Clonogenic (colony formation) assay; type: cell-based, human; conditions: SW480, versus CB002
Procedure: Colony formation assay. Cells were seeded in 6-well plates at a density of 500 cells per well. Cells were treated with CB002 small molecules for twenty-four hours. Then, cells were cultured in complete drug-free media for fifteen days. During the fifteen days, the media was changed every two-three days. At the end of the two weeks, the media was removed. Wells were washed twice with Dulbecco's phosphate-buffered saline (PBS). The colonies were fixed and stained with 10% methanol and 0.25% crystal violet (Sigma-Aldrich, St. Louis, Mo., USA) for thirty minutes. Wells were then carefully washed with distilled, deionized water and allowed to dry.

Structure (SMILES): Cn1c(=O)c2[nH]c(Nc3cccc(C(F)(F)F)c3)nc2n(C)c1=O [CB002-analog #4]
- sub-G1 in normal cells [1]: does not increase sub-G1
- cleaved-PARP (SW480 tumor cells; SW480): increases cleaved-PARP
- cytochrome C release from the mitochondria to the cytosol (SW480 tumor cells; SW480, forty-eight hours): cytochrome C release from the mitochondria to the cytosol
- PARP cleavage under p73 knockdown (SW480 tumor cells; SW480, p73 siRNA): PARP cleavage occurred despite effective p73 knockdown
- cytotoxicity by clonogenic assay (SW480 cells): more cytotoxic in vitro than CB002
